Measurements as given in ChEMBL document CHEMBL1255447, “Efflux pumps, OprD porin, AmpC beta-lactamase, and multiresistance in Pseudomonas aeruginosa isolates from cystic fibrosis patients” (2010).
≈ marks a conversion by molar mass, not a printed value.

system: Pseudomonas aeruginosa; assay: Antimicrobial activity against Pseudomonas aeruginosa isolate 13167 from fibrosis patient by Etest; format: functional; conditions: not given

SMILES	MIC
CO/N=C(\C(=O)N[C@@H]1C(=O)N2C(C(=O)O)=C(COC(C)=O)CS[C@H]12)c1csc(N)n1 [CEFOTAXIME]	> 256 µg/mL

system: Pseudomonas aeruginosa; assay: microbe, parasite or virus in culture; conditions: isolate 13120
Description: Antimicrobial activity against Pseudomonas aeruginosa isolate 13120 from fibrosis patient by Etest

SMILES	MIC
CO/N=C(\C(=O)N[C@@H]1C(=O)N2C(C(=O)O)=C(COC(C)=O)CS[C@H]12)c1csc(N)n1 [CEFOTAXIME]	128 µg/mL (≈ 281 µM)

system: Pseudomonas aeruginosa; assay: Antimicrobial activity against Pseudomonas aeruginosa isolate 14169c from fibrosis patient by Etest; format: functional; conditions: not given

SMILES	MIC
CO/N=C(\C(=O)N[C@@H]1C(=O)N2C(C(=O)O)=C(COC(C)=O)CS[C@H]12)c1csc(N)n1 [CEFOTAXIME]	128 µg/mL (≈ 281 µM)

system: Pseudomonas aeruginosa; assay: Antimicrobial activity against Pseudomonas aeruginosa isolate 1529c from fibrosis patient by Etest; format: functional; conditions: not given

SMILES	MIC
CO/N=C(\C(=O)N[C@@H]1C(=O)N2C(C(=O)O)=C(COC(C)=O)CS[C@H]12)c1csc(N)n1 [CEFOTAXIME]	32 µg/mL (≈ 70.3 µM)

system: Pseudomonas aeruginosa; assay: Antimicrobial activity against Pseudomonas aeruginosa isolate 1530c from fibrosis patient by Etest; format: functional; conditions: not given

SMILES	MIC
CO/N=C(\C(=O)N[C@@H]1C(=O)N2C(C(=O)O)=C(COC(C)=O)CS[C@H]12)c1csc(N)n1 [CEFOTAXIME]	32 µg/mL (≈ 70.3 µM)

system: Pseudomonas aeruginosa; assay: Antimicrobial activity against Pseudomonas aeruginosa isolate 1333c from fibrosis patient by Etest; format: functional; conditions: not given

SMILES	MIC
CO/N=C(\C(=O)N[C@@H]1C(=O)N2C(C(=O)O)=C(COC(C)=O)CS[C@H]12)c1csc(N)n1 [CEFOTAXIME]	> 256 µg/mL

system: Pseudomonas aeruginosa; assay: Antimicrobial activity against Pseudomonas aeruginosa isolate 1240 from fibrosis patient by Etest; format: functional; conditions: not given

SMILES	MIC
CO/N=C(\C(=O)N[C@@H]1C(=O)N2C(C(=O)O)=C(COC(C)=O)CS[C@H]12)c1csc(N)n1 [CEFOTAXIME]	256 µg/mL (≈ 562 µM)

system: Pseudomonas aeruginosa; assay: Antimicrobial activity against Pseudomonas aeruginosa isolate 12142c from fibrosis patient by Etest; format: functional; conditions: not given

SMILES	MIC
CO/N=C(\C(=O)N[C@@H]1C(=O)N2C(C(=O)O)=C(COC(C)=O)CS[C@H]12)c1csc(N)n1 [CEFOTAXIME]	> 256 µg/mL

system: Pseudomonas aeruginosa; assay: Antimicrobial activity against Pseudomonas aeruginosa isolate 1253 from fibrosis patient by Etest; format: functional; conditions: not given

SMILES	MIC
CO/N=C(\C(=O)N[C@@H]1C(=O)N2C(C(=O)O)=C(COC(C)=O)CS[C@H]12)c1csc(N)n1 [CEFOTAXIME]	128 µg/mL (≈ 281 µM)

system: Pseudomonas aeruginosa; assay: Antimicrobial activity against Pseudomonas aeruginosa isolate 1248c from fibrosis patient by Etest; format: functional; conditions: not given

SMILES	MIC
CO/N=C(\C(=O)N[C@@H]1C(=O)N2C(C(=O)O)=C(COC(C)=O)CS[C@H]12)c1csc(N)n1 [CEFOTAXIME]	> 256 µg/mL

system: Pseudomonas aeruginosa; assay: Antimicrobial activity against Pseudomonas aeruginosa isolate 1693c from fibrosis patient by Etest; format: functional; conditions: not given

SMILES	MIC
CO/N=C(\C(=O)N[C@@H]1C(=O)N2C(C(=O)O)=C(COC(C)=O)CS[C@H]12)c1csc(N)n1 [CEFOTAXIME]	128 µg/mL (≈ 281 µM)

system: Pseudomonas aeruginosa; assay: Antimicrobial activity against Pseudomonas aeruginosa isolate 1495c from fibrosis patient by Etest; format: functional; conditions: not given

SMILES	MIC
CO/N=C(\C(=O)N[C@@H]1C(=O)N2C(C(=O)O)=C(COC(C)=O)CS[C@H]12)c1csc(N)n1 [CEFOTAXIME]	> 256 µg/mL

system: Pseudomonas aeruginosa; assay: Antimicrobial activity against Pseudomonas aeruginosa isolate 15107 from fibrosis patient by Etest; format: functional; conditions: not given

SMILES	MIC
CO/N=C(\C(=O)N[C@@H]1C(=O)N2C(C(=O)O)=C(COC(C)=O)CS[C@H]12)c1csc(N)n1 [CEFOTAXIME]	256 µg/mL (≈ 562 µM)

system: Pseudomonas aeruginosa; assay: Antimicrobial activity against Pseudomonas aeruginosa isolate 1665 from fibrosis patient by Etest; format: functional; conditions: not given

SMILES	MIC
CO/N=C(\C(=O)N[C@@H]1C(=O)N2C(C(=O)O)=C(COC(C)=O)CS[C@H]12)c1csc(N)n1 [CEFOTAXIME]	> 256 µg/mL

system: Pseudomonas aeruginosa; assay: Antimicrobial activity against Pseudomonas aeruginosa R70 Etest; format: functional; conditions: not given

SMILES	MIC
CO/N=C(\C(=O)N[C@@H]1C(=O)N2C(C(=O)O)=C(COC(C)=O)CS[C@H]12)c1csc(N)n1 [CEFOTAXIME]	256 µg/mL (≈ 562 µM)

system: Pseudomonas aeruginosa; assay: Antimicrobial activity against Pseudomonas aeruginosa AHP Etest; format: functional; conditions: not given

SMILES	MIC
CO/N=C(\C(=O)N[C@@H]1C(=O)N2C(C(=O)O)=C(COC(C)=O)CS[C@H]12)c1csc(N)n1 [CEFOTAXIME]	4 µg/mL (≈ 8.78 µM)

system: Pseudomonas aeruginosa; assay: Antimicrobial activity against Pseudomonas aeruginosa isolate 16008 from fibrosis patient by Etest; format: functional; conditions: not given

SMILES	MIC
CO/N=C(\C(=O)N[C@@H]1C(=O)N2C(C(=O)O)=C(COC(C)=O)CS[C@H]12)c1csc(N)n1 [CEFOTAXIME]	64 µg/mL (≈ 141 µM)

system: Pseudomonas aeruginosa; assay: Antimicrobial activity against Pseudomonas aeruginosa 1405-con D2 by Etest; format: functional; conditions: not given

SMILES	MIC
CO/N=C(\C(=O)N[C@@H]1C(=O)N2C(C(=O)O)=C(COC(C)=O)CS[C@H]12)c1csc(N)n1 [CEFOTAXIME]	> 256 µg/mL

system: Pseudomonas aeruginosa; assay: Antimicrobial activity against Pseudomonas aeruginosa R20 Etest; format: functional; conditions: not given

SMILES	MIC
CO/N=C(\C(=O)N[C@@H]1C(=O)N2C(C(=O)O)=C(COC(C)=O)CS[C@H]12)c1csc(N)n1 [CEFOTAXIME]	4 µg/mL (≈ 8.78 µM)

system: Pseudomonas aeruginosa; assay: Antimicrobial activity against Pseudomonas aeruginosa isolate 17145c from fibrosis patient by Etest; format: functional; conditions: not given

SMILES	MIC
CO/N=C(\C(=O)N[C@@H]1C(=O)N2C(C(=O)O)=C(COC(C)=O)CS[C@H]12)c1csc(N)n1 [CEFOTAXIME]	128 µg/mL (≈ 281 µM)

system: Pseudomonas aeruginosa; assay: Antimicrobial activity against Pseudomonas aeruginosa isolate 17112 from fibrosis patient by Etest; format: functional; conditions: not given

SMILES	MIC
CO/N=C(\C(=O)N[C@@H]1C(=O)N2C(C(=O)O)=C(COC(C)=O)CS[C@H]12)c1csc(N)n1 [CEFOTAXIME]	> 256 µg/mL

system: Pseudomonas aeruginosa; assay: Antimicrobial activity against Pseudomonas aeruginosa isolate 12102 from fibrosis patient by Etest; format: functional; conditions: not given

SMILES	MIC
CO/N=C(\C(=O)N[C@@H]1C(=O)N2C(C(=O)O)=C(COC(C)=O)CS[C@H]12)c1csc(N)n1 [CEFOTAXIME]	64 µg/mL (≈ 141 µM)

system: Pseudomonas aeruginosa; assay: Antimicrobial activity against Pseudomonas aeruginosa M1251 by Etest; conditions: not given

SMILES	MIC
CO/N=C(\C(=O)N[C@@H]1C(=O)N2C(C(=O)O)=C(COC(C)=O)CS[C@H]12)c1csc(N)n1 [CEFOTAXIME]	128 µg/mL (≈ 281 µM)

system: Pseudomonas aeruginosa; assay: Antimicrobial activity against Pseudomonas aeruginosa isolate 1247c from fibrosis patient by Etest; format: functional; conditions: not given

SMILES	MIC
CO/N=C(\C(=O)N[C@@H]1C(=O)N2C(C(=O)O)=C(COC(C)=O)CS[C@H]12)c1csc(N)n1 [CEFOTAXIME]	128 µg/mL (≈ 281 µM)

system: Pseudomonas aeruginosa; assay: Antimicrobial activity against Pseudomonas aeruginosa isolate 1712c from fibrosis patient by Etest; format: functional; conditions: not given

SMILES	MIC
CO/N=C(\C(=O)N[C@@H]1C(=O)N2C(C(=O)O)=C(COC(C)=O)CS[C@H]12)c1csc(N)n1 [CEFOTAXIME]	> 256 µg/mL

system: Pseudomonas aeruginosa; assay: Antimicrobial activity against Pseudomonas aeruginosa isolate 1726 from fibrosis patient by Etest; format: functional; conditions: not given

SMILES	MIC
CO/N=C(\C(=O)N[C@@H]1C(=O)N2C(C(=O)O)=C(COC(C)=O)CS[C@H]12)c1csc(N)n1 [CEFOTAXIME]	16 µg/mL (≈ 35.1 µM)

system: Pseudomonas aeruginosa; assay: Antimicrobial activity against Pseudomonas aeruginosa isolate 1352c from fibrosis patient by Etest; format: functional; conditions: not given

SMILES	MIC
CO/N=C(\C(=O)N[C@@H]1C(=O)N2C(C(=O)O)=C(COC(C)=O)CS[C@H]12)c1csc(N)n1 [CEFOTAXIME]	> 256 µg/mL

system: Pseudomonas aeruginosa; assay: Antimicrobial activity against Pseudomonas aeruginosa isolate 3149 from fibrosis patient by Etest; format: functional; conditions: not given

SMILES	MIC
CO/N=C(\C(=O)N[C@@H]1C(=O)N2C(C(=O)O)=C(COC(C)=O)CS[C@H]12)c1csc(N)n1 [CEFOTAXIME]	64 µg/mL (≈ 141 µM)

system: Pseudomonas aeruginosa; assay: Antimicrobial activity against Pseudomonas aeruginosa isolate 1681c from fibrosis patient by Etest; format: functional; conditions: not given

SMILES	MIC
CO/N=C(\C(=O)N[C@@H]1C(=O)N2C(C(=O)O)=C(COC(C)=O)CS[C@H]12)c1csc(N)n1 [CEFOTAXIME]	> 256 µg/mL

system: Pseudomonas aeruginosa; assay: microbe, parasite or virus in culture; conditions: 2779-con
Description: Antimicrobial activity against Pseudomonas aeruginosa 2779-con by Etest

SMILES	MIC
CO/N=C(\C(=O)N[C@@H]1C(=O)N2C(C(=O)O)=C(COC(C)=O)CS[C@H]12)c1csc(N)n1 [CEFOTAXIME]	> 256 µg/mL

system: Pseudomonas aeruginosa; assay: Antimicrobial activity against Pseudomonas aeruginosa Z799/61 by Etest; format: functional; conditions: not given

SMILES	MIC
CO/N=C(\C(=O)N[C@@H]1C(=O)N2C(C(=O)O)=C(COC(C)=O)CS[C@H]12)c1csc(N)n1 [CEFOTAXIME]	0.5 µg/mL (≈ 1.1 µM)

system: Pseudomonas aeruginosa; assay: Antimicrobial activity against Pseudomonas aeruginosa isolate 15110c from fibrosis patient by Etest; format: functional; conditions: not given

SMILES	MIC
CO/N=C(\C(=O)N[C@@H]1C(=O)N2C(C(=O)O)=C(COC(C)=O)CS[C@H]12)c1csc(N)n1 [CEFOTAXIME]	> 256 µg/mL
